This assay addresses T1, FimH-CRD (Escherichia coli, UniProt P08191).
T1 construct: The first 177 amino acids of the FimH protein; thrombin tag (printed as 'fusion protein with thrombin') (cleaved yes); made in house; host or cells: bacteria (pET21b plasmid)
The assay can be described thus: Competitive binding assay by fluorescence polarization, assay 1 (compounds prepared by manual serial dilution). The method, then:
The first 177 amino acids of the FimH protein were expressed as a fusion protein with thrombin in a pET21b plasmid in bacteria. This FimH protein sequence contains the carbohydrate recognition domain (CRD) and shall be termed FimH-CRD. Following bacterial expression of the protein, the FimH-CRD protein was purified to homogeneity and the thrombin tag removed by protease cleavage. A competitive binding assay by fluorescence polarization was performed using 5 nM of the Alexa 647 mannoside probe and 60 nM of the FimH-CRD. The samples are assayed in a low volume 384 well microtiter plate in a final volume of 20 μl. The final assay buffer conditions are the following, 50 mM Tris-Cl, ph 7.0, 100 mM NaCl, 1 mM EDTA, 5 mM β-mercaptoethanol, 0.05% BSA and 2.5% DMSO. Two assays are performed for FimH, termed assay 1 or assay 2. The assay conditions are the same for both assays except the following: assay 1 has compounds prepared by manual dilution in a serial dilution factor with 12-point dose response while assay 2 has compounds prepared by a robotics system also through a serial dilution factor (12 point dose response) and initially prepared in duplicate in 384 well-Corning polypropylene round bottom plates. The assay 2 plates have compound which is then frozen and must be thawed prior to use. Initially the Alexa 647 probe and the FimH-CRD are added to the assay buffer and then 0.5 μl of test compound (assay 1 or 2) between 0.4 nM to 75 μM final concentration are added (12 point titration with 3-fold serial dilution). Control wells for the Alexa 647 probe are prepared with the same conditions except for the addition of the FimH-CRD protein. Plates are then incubated for 5 hrs at room temperature in the dark and under humid conditions to prevent drying. Plates are read using the SpectraMax Paradigm multi-mode plate reader and the appropriate fluorescent polarization detection cartridge (Alexa-647).
Alexa 647 mannoside probe is prepared using the similar procedure reported for FAM mannoside (Han, Z. et. al., 2010, J. Med. Chem., 53, 4779) and is described in the scheme below.
To a blue colored stirred solution of (2S,3S,4S,5S,6R)-2-(4-aminobutoxy)-6-(hydroxymethyl)tetrahydropyran-3,4,5-triol (2.21 mg, 0.009 mmol) and the (2E)-2-[(2E,4E)-5-[3,3-dimethyl-5-sulfonato-1-(3-sulfonatopropyl)indol-1-ium-2-yl]penta-2,4-dienylidene]-3-[6-(2,5-dioxopyrrolidin-1-yl)oxy-6-oxo-hexyl]-3-methyl-1-(3-sulfonatopropyl)indoline-5-sulfonate (Potassium Ion (3)) (4.9 mg, 0.0044 mmol) in DMF (44 μL) is added Et3N (5.4 mg, 7.0 μL, 0.053 mmol) at RT. The solution is stirred at room temperature over night, concentrated, dissolved in water and purified on 12 g C-18 silica gel cartridge on Isolera system using acetonitrile in water (0 to 40%, 10 CV) and followed by lyophilization to afford Alexa 647 mannoside probe (3.3 mg, 34%) as deep blue solid.
The Kd values of the compounds are determined from dose response curves using twelve concentrations per compound in duplicate. Curves are fitted to data points using Fluorescence Polarization competitive displacement analysis, and Kds are interpolated from the resulting curves using GraphPad Prism software, version […] (GraphPad software Inc., San Diego, Calif., USA).
For orientation: Fluorescence polarisation rises when a labelled molecule tumbles more slowly, as on binding a larger partner.
T1 sequence (P08191 22-177): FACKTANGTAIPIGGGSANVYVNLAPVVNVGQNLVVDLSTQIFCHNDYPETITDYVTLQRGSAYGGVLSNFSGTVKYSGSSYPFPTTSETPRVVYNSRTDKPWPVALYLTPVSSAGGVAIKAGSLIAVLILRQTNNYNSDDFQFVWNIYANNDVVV
One may read the IC50 as the midpoint of a concentration-inhibition curve. Low values mean greater potency in that assay, high ones weaker potency in that assay. As usually defined, the Kd is a measure of binding affinity in units of concentration. Higher therefore signals lower affinity. As to `Cc1cnc(NC(=O)c2cccc([C@H]3O[C@H](CO)[C@@H](O)[C@H](O)[C@@H]3O)c2)s1` [Compound 28, N-(5-methylthiazol-2-yl)-3-((2R,3S,4R,5S,6R)-3,4,5-trihydroxy-6-(hydroxymethyl)tetrahydro-2H-pyran-2-yl)benzamide], the IC50 is 56 nM and the Kd stood at 16.7 ± 7.5 nM.
`O=C(Nc1cccnc1)c1cccc([C@H]2O[C@H](CO)[C@@H](O)[C@H](O)[C@@H]2O)c1` [Compound 29, N-(pyridin-3-yl)-3-((2R,3S,4R,5S,6R)-3,4,5-trihydroxy-6-(hydroxymethyl)tetrahydro-2H-pyran-2-yl)benzamide] registered an IC50 of 59 nM and an equilibrium dissociation constant (Kd) of 18.1 ± 5.9 nM.
Taken in the same sequence, the figures for `O=C(Nc1nc2ccc(Cl)cc2s1)c1cccc([C@H]2O[C@H](CO)[C@@H](O)[C@H](O)[C@@H]2O)c1` [Compound 30, N-(6-chlorobenzo[d]thiazol-2-yl)-3-((2R,3S,4R,5S,6R)-3,4,5-trihydroxy-6-(hydroxymethyl)tetrahydro-2H-pyran-2-yl)benzamide] were 53 nM and 9.8 ± 1.8 nM.
For `CCCc1ccc(NC(=O)c2cccc([C@H]3O[C@H](CO)[C@@H](O)[C@H](O)[C@@H]3O)c2)cc1` [Compound 31, N-(4-propylphenyl)-3-((2R,3S,4R,5S,6R)-3,4,5-trihydroxy-6-(hydroxymethyl)tetrahydro-2H-pyran-2-yl)benzamide], in that order: 84 nM and 22.8 ± 0.9 nM.
Taken in the same sequence, the figures for `O=C(Nc1ccc2ccccc2c1)c1cccc([C@H]2O[C@H](CO)[C@@H](O)[C@H](O)[C@@H]2O)c1` [Compound 32, N-(naphthalen-2-yl)-3-((2R,3S,4R,5S,6R)-3,4,5-trihydroxy-6-(hydroxymethyl)tetrahydro-2H-pyran-2-yl)benzamide] were 45 nM and 22.6 ± 18.7 nM.
Molecule `O=C(NCc1ccccc1)c1cccc([C@H]2O[C@H](CO)[C@@H](O)[C@H](O)[C@@H]2O)c1` [Compound 33, N-benzyl-3-((2R,3S,4R,5S,6R)-3,4,5-trihydroxy-6-(hydroxymethyl)tetrahydro-2H-pyran-2-yl)benzamide] registered an IC50 of 76 nM and a Kd of 28.9 ± 14.5 nM.
For `O=C(NCCc1ccccc1)c1cccc([C@H]2O[C@H](CO)[C@@H](O)[C@H](O)[C@@H]2O)c1` [Compound 34, N-phenethyl-3-((2R,3S,4R,5S,6R)-3,4,5-trihydroxy-6-(hydroxymethyl)tetrahydro-2H-pyran-2-yl)benzamide], in that order: 124 nM and 38 ± 7.1 nM.
In turn, `O=C(NC1CC1)c1cccc([C@H]2O[C@H](CO)[C@@H](O)[C@H](O)[C@@H]2O)c1` [Compound 36, N-cyclopropyl-3-((2R,3S,4R,5S,6R)-3,4,5-trihydroxy-6-(hydroxymethyl)tetrahydro-2H-pyran-2-yl)benzamide] showed an IC50 of 168 nM and a Kd of 53.2 ± 6.5 nM.
For `O=C(NCC1CC1)c1cccc([C@H]2O[C@H](CO)[C@@H](O)[C@H](O)[C@@H]2O)c1` [Compound 37, N-(cyclopropylmethyl)-3-((2R,3S,4R,5S,6R)-3,4,5-trihydroxy-6-(hydroxymethyl)tetrahydro-2H-pyran-2-yl)benzamide], binding was put at a Kd of 40.1 ± 15.1 nM.
`CNC(=O)c1cccc(-c2ccccc2[C@H]2O[C@H](CO)[C@@H](O)[C@H](O)[C@@H]2O)c1` [Compound 39, N-methyl-2′-((2R,3S,4R,5S,6R)-3,4,5-trihydroxy-6-(hydroxymethyl)tetrahydro-2H-pyran-2-yl)-[1,1′-biphenyl]-3-carboxamide]: the IC50 was 1390 nM and the Kd stood at 396 ± 44.7 nM.
On to `COc1ccc(Br)cc1[C@H]1O[C@H](CO)[C@@H](O)[C@H](O)[C@@H]1O` [Compound 41, (2R,3S,4R,5S,6R)-2-(5-bromo-2-methoxyphenyl)-6-(hydroxymethyl)tetrahydro-2H-pyran-3,4,5-triol], for which the IC50 turned out to be 223 nM and binding was put at a Kd of 47.8 ± 6.8 nM.
For `COC(=O)CCc1ccc(OC)c([C@H]2O[C@H](CO)[C@@H](O)[C@H](O)[C@@H]2O)c1` [Compound 42, Methyl 3-(4-methoxy-3-((2R,3S,4R,5S,6R)-3,4,5-trihydroxy-6-(hydroxymethyl)tetrahydro-2H-pyran-2-yl)phenyl)propanoate], in that order: 225 nM and 58.4 ± 9.8 nM.
For `OC[C@H]1O[C@H](c2cccc(-c3ccccc3)c2)[C@@H](O)[C@@H](O)[C@@H]1O` [Compound 43, (2R,3S,4R,5S,6R)-2-(hydroxymethyl)-6-(3-phenylphenyl)tetrahydropyran-3,4,5-triol], in that order: 64 nM and 12.4 ± 1.3 nM.
For `OC[C@H]1O[C@H](c2ccccc2O)[C@@H](O)[C@@H](O)[C@@H]1O` [Compound 45, (2R,3S,4R,5S,6R)-2-(hydroxymethyl)-6-(2-hydroxyphenyl)tetrahydropyran-3,4,5-triol], in that order: 183 nM and 76.9 ± 49.1 nM.
`OC[C@H]1O[C@H](c2ccc(O)cc2)[C@@H](O)[C@@H](O)[C@@H]1O` [Compound 46, (2R,3S,4R,5S,6R)-2-(hydroxymethyl)-6-(4-hydroxyphenyl)tetrahydropyran-3,4,5-triol] came in with an IC50 of 148 nM and a Kd of 28.2 ± 13.3 nM.
Consider `OC[C@H]1O[C@H](c2cccc(F)c2)[C@@H](O)[C@@H](O)[C@@H]1O` [Compound 47, (2R,3S,4R,5S,6R)-2-(3-fluorophenyl)-6-(hydroxymethyl)tetrahydropyran-3,4,5-triol], for which the IC50 amounted to 163 nM and the affinity, expressed as Kd, was 40.6 ± 10.4 nM.
For `CC(C)C(=O)Nc1ccc(-c2cccc([C@H]3O[C@H](CO)[C@@H](O)[C@H](O)[C@@H]3O)c2)cc1` [Compound 49, 2-methyl-N-[4-[3-[(2R,3S,4R,5S,6R)-3,4,5-trihydroxy-6-(hydroxymethyl)tetrahydropyran-2-yl]phenyl]phenyl]propanamide], in that order: 45 nM and 6.3 ± 1.4 nM.
For `CNS(=O)(=O)c1cccc(-c2cccc([C@H]3O[C@H](CO)[C@@H](O)[C@H](O)[C@@H]3O)c2)c1` [Compound 50, N-methyl-3-[3-[(2R,3S,4R,5S,6R)-3,4,5-trihydroxy-6-(hydroxymethyl)tetrahydropyran-2-yl]phenyl]benzenesulfonamide], in that order: 39 nM and 10.7 ± 5.2 nM.
For `COC(=O)c1cc(Oc2cccc([C@H]3O[C@H](CO)[C@@H](O)[C@H](O)[C@@H]3O)c2)cc(C(=O)OC)c1` [Compound 51, Dimethyl 5-[3-[(2R,3S,4R,5S,6R)-3,4,5-trihydroxy-6-(hydroxymethyl)tetrahydropyran-2-yl]phenoxy]benzene-1,3-dicarboxylate], in that order: 33 nM and 5.2 ± 0.1 nM.
Turning to `COC(=O)c1ccc(Oc2cccc([C@H]3O[C@H](CO)[C@@H](O)[C@H](O)[C@@H]3O)c2)cc1` [Compound 52, Methyl 4-[3-[(2R,3S,4R,5S,6R)-3,4,5-trihydroxy-6-(hydroxymethyl)tetrahydropyran-2-yl]phenoxy]benzoate], the IC50 was determined as 23 nM and the Kd was < 5 nM.
For `COC(=O)Cc1ccc(Oc2ccc([C@H]3O[C@H](CO)[C@@H](O)[C@H](O)[C@@H]3O)cc2)cc1` [Compound 55, methyl 2-(4-(4-((2R,3S,4R,5S,6R)-3,4,5-trihydroxy-6-(hydroxymethyl)tetrahydro-2H-pyran-2-yl)phenoxy)phenyl)acetate], the IC50 came to 35 nM and binding was characterised by a dissociation constant (Kd) of 6.3 ± 0.4 nM.
Turning to `COC(=O)c1cccc(Oc2ccc([C@H]3O[C@H](CO)[C@@H](O)[C@H](O)[C@@H]3O)cc2)c1` [Compound 56, Methyl 3-(4-((2R,3S,4R,5S,6R)-3,4,5-trihydroxy-6-(hydroxymethyl)tetrahydro-2H-pyran-2-yl)phenoxy)benzoate], the IC50 is 14 nM and the Kd came out at 5.4 ± 0.3 nM.

These data come from patent publication US20130261077A1 (priority 2012, published 2013).
